From US11999745B2, “Pharmaceutical compounds” (Heptares Therapeutics Limited, priority 2020, dated 2024)
Read-outs that look alike come from different tables or passages of the source.

Key:
[1] = Hepatocyte stability, CLint (in vitro hepatocytes), monkey; format: in vitro ADME; conditions: pooled cryopreserved hepatocytes, 1.0 million cells/mL, 37° C., read-out: in vitro intrinsic clearance (CLint)
Protocol: (§1) Hepatocyte stability assays were performed using pooled cryopreserved hepatocytes (Bioreclamation). Test compounds prepared in DMSO, were incubated at an initial concentration of 1 μM (0.25% DMSO final, n=2) with hepatocytes at cell densities of 1.0 million cells/mL at 37° C. Aliquots were removed at 0.5, 5, 10, 15, 30, 60 and 120 minutes for termination of reactions and compound extraction with acetonitrile containing an analytical internal standard (0.5 μM carbamazepine). Samples were centrifuged and the supernatant fractions analysed for parent compound by mass spectrometry (LC-MS/MS). The amount of compound remaining (expressed as %) was determined from the MS response in each sample relative to that in the T=0 samples (normalised for internal standard). Ln plots of the % remaining were used to determine the half-life for compound disappearance using the relationship: Half-Life(min)=−0.693/λ (where λ is the slope of the Ln % remaining vs time curve).

[2] = target: T1, M1 receptor (Homo sapiens, UniProt P11229); test: Predicted target engagement for human efficacious dose (allometric scaling)
T1 sequence (P11229 1-460): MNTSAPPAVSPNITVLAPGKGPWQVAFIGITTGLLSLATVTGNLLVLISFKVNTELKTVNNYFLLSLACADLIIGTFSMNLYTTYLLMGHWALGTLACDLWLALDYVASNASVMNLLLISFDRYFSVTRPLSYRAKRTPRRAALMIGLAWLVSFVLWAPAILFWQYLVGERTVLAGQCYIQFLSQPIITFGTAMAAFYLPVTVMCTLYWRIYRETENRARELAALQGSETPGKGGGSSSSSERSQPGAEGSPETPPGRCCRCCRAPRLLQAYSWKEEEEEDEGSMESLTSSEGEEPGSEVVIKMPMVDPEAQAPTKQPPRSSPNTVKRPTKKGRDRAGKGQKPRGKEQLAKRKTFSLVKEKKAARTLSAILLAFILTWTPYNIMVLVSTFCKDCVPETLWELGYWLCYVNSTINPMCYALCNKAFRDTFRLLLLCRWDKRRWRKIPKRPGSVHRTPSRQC
Text: Based on a measured equivalent unbound plasma:brain distribution profile (Kpuu=1) the exposures shown represent those in either the plasma or brain compartment.

[3] = Unbound brain/unbound plasma concentration ratio (Kp,uu); format: in vivo; conditions: brain and plasma (unbound); measured unbound plasma:brain distribution; parameter used in prediction; read-out: Kpuu (unbound brain/unbound plasma concentration)
Text: Kp,uu—ratio of unbound brain concentration/unbound plasma concentration. Quantifies the net flux of drug across the blood brain barrier, including the quantitative role of transporters, without being confounded by nonspecific binding in plasma and brain tissues. Gupta et al, DMD, 2006; Hammarlund-Udenaes et al, PharmRes, 2008

[4] = Hepatocyte stability, CLint (in vitro hepatocytes), rat; format: in vitro ADME; conditions: pooled cryopreserved hepatocytes, 1.0 million cells/mL, 37° C., read-out: in vitro intrinsic clearance (CLint)
Protocol: as §1

[5] = Fraction unbound (fu) in plasma or brain tissue homogenate; format: in vitro ADME; conditions: parameter used in receptor occupancy prediction
Text: fu—fraction of compound unbound in plasma or brain tissue homogenate

[6] = Hepatocyte stability, CLint (in vitro hepatocytes), human; format: in vitro ADME; conditions: pooled cryopreserved hepatocytes, 1.0 million cells/mL, 37° C., read-out: in vitro intrinsic clearance (CLint)
Protocol: as §1

[7] = Hepatocyte stability, CLint (in vitro hepatocytes), dog; format: in vitro ADME; conditions: pooled cryopreserved hepatocytes, 1.0 million cells/mL, 37° C., read-out: in vitro intrinsic clearance (CLint)
Protocol: as §1

[8] = Hepatocyte stability, CLint (in vitro hepatocytes), mouse; format: in vitro ADME; conditions: pooled cryopreserved hepatocytes, 1.0 million cells/mL, 37° C., read-out: in vitro intrinsic clearance (CLint)
Protocol: as §1

[9] = target: T2, human muscarinic M1 receptor (Homo sapiens, UniProt P11229); test: Alphascreen Surefire phospho-ERK1/2 functional assay, M1; format: cell-based
T2 construct: expressed in transfected cells
T2 sequence (P11229 1-460): T1 sequence (P11229 1-460)
Protocol: ERK1/2 phosphorylation is a downstream consequence of both Gq/11 and Gi/o protein coupled receptor activation, making it highly suitable for the assessment of M1, M3 (Gq/11 coupled) and M2, M4 receptors (Gi/o coupled), rather than using different assay formats for different receptor subtypes. CHO cells stably expressing the human muscarinic M1, M2, M3 or M4 receptor were plated (25K/well) onto 96-well tissue culture plates in MEM-alpha+10% dialysed FBS. Once adhered, cells were serum-starved overnight. Agonist stimulation was performed by the addition of 5 μL agonist to the cells for 5 min (37° C.). Media was removed and 50 μL of lysis buffer added.

[10] = test system: MDR1 (P-glycoprotein); test: MDCK permeability/efflux; format: in vitro ADME; conditions: dog
Protocol: MDR1-MDCK cells (Solvo Biotechnology) were seeded onto 24-well Transwell plates at 2.35×10^5 cells per well and used in confluent monolayers after a 3 day culture at 37° C. under 5% CO2. For cell types, test and control compounds (propranolol, vinblastine) were added (1 μM, 0.1% DMSO final, n=2) to donor compartments of the Transwell plate assembly in assay buffer (Hanks balanced salt solution supplemented with 25 mM HEPES, adjusted to pH 7.4) for both apical to basolateral (A>B) and basolateral to apical (B>A) measurements. Incubations were performed at 37° C., with samples removed from both donor and acceptor chambers at T=0 and 1 hour and compound analysed by mass spectrometry (LC-MS/MS) including an analytical internal standard.
Apparent permeability (Papp) values were determined from the relationship: Papp=(CompoundAcceptor T=end/(CompoundDonor×VDonorγIncubation Time)×VDonor Area×60×10^−6 cm/s
Where V is the volume of each Transwell compartment (apical 125 μL, basolateral 600 μL), and concentrations are the relative MS responses for compound (normalized to internal standard) in the donor chamber before incubation and acceptor chamber at the end of the incubation. Area=area of cells exposed for drug transfer (0.33 cm^2). Efflux ratio (Papp B>A /Papp A>B) was calculated from the mean Papp values in each direction. […] Lucifer Yellow (LY) was added to the apical buffer in all wells to assess viability of the cell layer. […] Compound recovery from the wells was determined from MS responses (normalized to internal standard) in donor and acceptor chambers at the end of incubation compared to response in the donor chamber pre-incubation.

[11] = parameter used in human receptor occupancy prediction

Q: What does the source list for `CC(C)(C)NC(=O)C1CCN([C@H]2C[C@H]3CC[C@@H](C2)N3c2nc(C(F)(F)F)no2)CC1` [Example 1, N-tert-butyl-1-{(1R,3r,5S)-8-[3-(trifluoromethyl)-1,2,4-oxadiazol-5-yl]-8-azabicyclo[3.2.1]octan-3-yl}piperidine-4-carboxamide]?
A: hepatocyte CLint at 1 μM [1]: < 5 µL/min/1e6 cells; predicted dose to reach the unbound brain exposure required for M1 agonist efficacy ([2]; human, oral, 6 hours unbound brain exposure over recombinant M1 EC50): approx. 22 mg; predicted human half-life ([2]; human, predicted from allometric scaling): 15 h; CI (clearance) [2, 11]: 4.4 mL/min/kg; F (bioavailability) [2, 11]: 0.61; Ka [2, 11]: 1; V [2, 11]: 5.9; Kp uu [3]: 1; hepatocyte CLint at 1 μM [4]: 8 µL/min/1e6 cells; fraction unbound [5]: 0.682; hepatocyte CLint at 1 μM [6]: < 5 µL/min/1e6 cells; hepatocyte CLint at 1 μM [7]: 8 µL/min/1e6 cells; hepatocyte CLint at 1 μM [8]: 7 µL/min/1e6 cells; EC50 ([9]; CHO cells stably expressing human M1, phospho-ERK1/2, read-out: pEC50 M1 (converted)): 67.6 nM; EC50 ([9]; as quoted in FIG. 1 legend, 50% target engagement, read-out: recombinant human EC50 (M1) (converted)): 65.2 nM; EC50 ([9]; recombinant human EC50 (M1), as quoted in FIG. 1 legend, 50% target engagement): 86 nM; Papp A→B at 1 h, 1 μM ([10]; apical to basolateral, 1 μM, pH 7.4, 1 hour, read-out: Apparent permeability (Papp) A−B): 66 ×10⁻⁶ cm/s; Papp B→A at 1 h, 1 μM ([10]; basolateral to apical, 1 μM, pH 7.4, 1 hour, read-out: Apparent permeability (Papp) B−A): 77 ×10⁻⁶ cm/s; efflux ratio at 1 h, 1 μM ([10]; pH 7.4, read-out: B−A/A−B efflux ratio): 1.2
